Measurements reported in patent US20210290676A1, “IMPROVING THE EFFICACY AND SAFETY OF ADOPTIVE CELLULAR THERAPIES” (University of Southern California, priority 2018, published 2021).

How the values were obtained:
Format in all cases: cell-based, human
[1] = system: CD45RA+CCR7+CD62L+ T cells; test: Flow cytometry for CD45RA, CCR7 and CD62L on inhibitor-treated T cells (all T cells); details: cells cultured for 14 days
Method: (§1) DAY 0: Blood was obtained from unidentified donor. After RBC lysis, PBMC were collected using Ficoll-Hypaque separation. […] T cells were cultured in three different conditions: • 1. XVIVO 15 medium (Lonza) with IL2 50 IU/ml, CD3 antibody (30 ng/ml) and CD28 antibody (30 ng/ml). • 2. XVIVO 15 medium (Lonza) with CD3 antibody (30 ng/ml) and CD28 antibody (30 ng/ml). • 3. XVIVO 15 medium (Lonza) with IL2 50 IU/ml DAY 1: Cells were plated in a 6-well plate at a density of 1 million cells in 2 ml/of media (as described above) and treated with different inhibitors
(§2) A second aliquot of the cells cultured for 13 days with all the treatments listed above (1-21) was washed with PBS+1% FBS, stained with CD8-PerCP, CD45RA-FITC, CCR7-PE and CD62L-APC (5% Y/100 μl/sample for each of 4 antibodies) at 4° C. for 1 h, washed twice with PBS+100 FBS and analyzed on flow cytometer to check if these drugs are enriching T stem cells showing surface expression of CD8+CD45RA+CCR7+CD62L+.
(§3) Day 0: Blood was obtained from unidentified donor. After RBC lysis, PBMC were collected using Ficoll-Hypaque separation. 200 million T cells were isolated from PBMCs using CD3 microbeads. T cells were cultured overnight in XVIVO 15 medium (Lonza) with IL2 (50 IU/ml), 30 ng/ml of CD3 and CD28 antibodies
(§4) Day 1: Cells were plated in 24-well plates at a density of 0.3 million cells/ml in each well and treated with different drugs.
(§5) On day 7, culture medium was replaced with fresh medium with fresh drugs.
(§6) On day 13, culture medium was replaced with fresh medium and fresh drugs. Half of the cells were transferred to 6-well plates.
as §2, with “14” for “13”, “above” for “above (1-21)”, “(5 ul/100 ul/sample” for “(5% Y/100 μl/sample”, “PBS+1%” for “PBS+100”, “enriching for” for “enriching”, “T” for “T stem”

[2] = system: Pgp+ (DiOC2(3)-dye effluxing cells) and CD62L+ T cells; test: DiOC2(3) dye efflux plus CD62L-APC staining, flow cytometry of inhibitor-treated T cells; details: treatment for 13 days, IL2 + CD3 and CD28 antibodies
Method: (§7) The use of P-glycoprotein (Pgp)-mediated efflux of DiOC2(3) to isolate stem like T cells for adoptive cellular therapy has been described in application no. […] In the following examples, DiOC2(3) staining was used to study the effect of different inhibitors on generation of stem like T cells.
as §1
(§8) The cell growth medium was changed in 6-well plates and fresh drugs were added at same concentration for one more week.
(§9) […] (DAY 11): Culture medium was changed and fresh drugs were added in 6-well plates.
(§10) Subsequently, cells were washed with RPMI medium and dye was effluxed at 37° C. for 90 min. Cells were washed with […], stained with CD62L-APC (5 μl/100 μl/sample) at 4° C. for 1 h, washed twice with PBS+1% FBS and analyzed on flow cytometer to check if these drugs treatment leads to increase in Pgp+/CD62L positive population.
as §3, §4, §5, §6
(§11) Day 14: An aliquot of cells with all the treatments listed above (for 13 days) was used to stain the cells with DiOC2(3) (60 ng/ml in RPMI medium) at 4° C. for 40 min, washed with RPMI medium, DiOC2(3) dye was effluxed at 37° C. for 90 min, washed with PBS+1% FBS, stained with CD62L-APC antibody. CD62L is a marker for resting T cells. (5 μl/100 μl/sample) at 4° C. for 1 h, washed twice with PBS+1% FBS and analyzed on flow cytometer to check if these drugs are affecting the dye-effluxing or Pgp+ (i.e., DiOC2(3)-dull) T-cell population.

[3] = system: CD8+CD45RA+CCR7+CD62L+ T cells; test: Flow cytometry for CD8, CD45RA, CCR7 and CD62L on inhibitor-treated T cells; details: cells cultured for 14 days
Method: as §1, §2, §3, §4, §5, §6
as §2, with “14” for “13”, “above” for “above (1-21)”, “(5 ul/100 ul/sample” for “(5% Y/100 μl/sample”, “PBS+1%” for “PBS+100”, “enriching for” for “enriching”, “T” for “T stem”

[4] = system: Pgp+ (DiOC2(3)-dye effluxing) T cells; test: DiOC2(3) dye efflux flow cytometry of inhibitor-treated T cells; details: treatment for 13 days, IL2 + CD3 and CD28 antibodies
Method: as §7, §1, §8, §9, §10, §3, §4, §5, §6, §11

Row | Compound | GATE P6 CD45RA(FITC)+, CCR7 (PE)+, CD62L(APC) ([1]; 500 nM) | GATE P6 CD45RA(FITC)+, CCR7 (PE)+, CD62L(APC) ([1]; 1 μM) | p5: double +ve pgp+ and CD62L-APC+ from Live cells ([2]; 500 nM) | p5: double +ve pgp+ and CD62L-APC+ from Live cells ([2]; 1 μM) | GATE P4 CD8(PerCP)+, CD45RA(FITC)+, CCR7 (PE)+, CD62L(APC) ([3]; 500 nM) | GATE P4 CD8(PerCP)+, CD45RA(FITC)+, CCR7 (PE)+, CD62L(APC) ([3]; 1 μM) | p2: pgp+ from Live cells ([4]; 500 nM) | p2: pgp+ from Live cells ([4]; 1 μM) | GATE P6 CD45RA(FITC)+, CCR7 (PE)+, CD62L(APC) ([1]; 10 nM) | GATE P6 CD45RA(FITC)+, CCR7 (PE)+, CD62L(APC) ([1]; 100 nM) | p5: double +ve pgp+ and CD62L-APC+ from Live cells ([2]; 10 nM) | p5: double +ve pgp+ and CD62L-APC+ from Live cells ([2]; 100 nM) | GATE P4 CD8(PerCP)+, CD45RA(FITC)+, CCR7 (PE)+, CD62L(APC) ([3]; 10 nM) | GATE P4 CD8(PerCP)+, CD45RA(FITC)+, CCR7 (PE)+, CD62L(APC) ([3]; 100 nM) | p2: pgp+ from Live cells ([4]; 10 nM) | p2: pgp+ from Live cells ([4]; 100 nM)
1 | CS(=O)(=O)c1ccc(-c2cnc(NCc3ccco3)n3cnnc23)cc1 [EED226] | 60.45% | 60.45% | 10.41 | 11.82 | 70.21% | 74.83% | 37.6 | 43.53 | – | – | – | – | – | – | – | –
2 | COc1cc2c(NC3CCN(C(C)C)CC3)nc(N3CCC(F)(F)CC3)nc2cc1OCCCN1CCCC1 [UNC0642] | – | – | – | – | – | – | – | – | 63.95% | 75.75% | 4.46 | 4.81 | 71.62% | 82.37% | 22.03 | 32.51
